Measured values: US7754875B1, “Halide-free glucosamine base-organic acid salt compositions” (JFC Technologies, LLC, priority 2004, dated 2010)

Experiments:
[1] = Stability of sample in open dish exposed to the air at ambient temperature (color change); type: physicochemical
Experimental: (§1) 17.9 g of halide-free glucosamine base was mixed with 150 cc of purified water in a reaction vessel. After a clear solution was obtained, 16 g of α-hydroxy octanoic acid were slowly added, with stirring, to the glucosamine base solution. It was noted that the reaction was slightly exothermic since the temperature rose to 35° C. The reaction mixture was filtered and the water was removed by freeze-drying at a pressure of about 200 milliTorre and a temperature of about −45° C. 33 g of an off-white crystalline powder were obtained. The product was placed in a capped bottle that was placed in the refrigerator. […] A sample of the product was placed in an open dish exposed to the air at ambient temperature.
Example 1 was repeated using 300 cc of purified water to which 16.5 g of polyethylene glycol homopolymer had been added. 49 g (97.2% yield) of the white salt product were obtained. A sample of this product was placed in an open dish exposed to the air at ambient temperature.
A sample of the Example 3 product was placed in a dish exposed to the air at ambient temperature. […] A sample of the Example 4 product was placed in a dish exposed to the air at ambient temperature.

[2] = Stability of product kept in capped bottle in the refrigerator (color); type: physicochemical; settings: six months
Experimental: as §1

color of sample after exposure to the air at ambient temperature ([1]; dish, 1 day)	Compound	color of sample after exposure to the air at ambient temperature ([1]; open dish, 3 days)	color of product kept in the refrigerator [2]
	CCCCCCC(O)C(=O)O.NC1C(O)OC(CO)C(O)C1O (stereo not drawn) [Example 1]	developed a yellow color	remained off-white in color
developed a yellow-orange color	N[C@H]1C(O)O[C@H](CO)[C@@H](O)[C@@H]1O.O=C(O)CC(O)(CC(=O)O)C(=O)O [Example 3]		
